Experiment [1] has as its system Phanerochaete chrysosporium tyrosine ammonia lyase PcTAL (PAL/TAL enzyme), wild type, SEQ ID NO:1. Nature of the experiment: PcTAL substrate test with histidine. It counts as biochemical. The settings on record: 20 mM histidine, 100 mM diethanol amime at pH 9, 1.3 mM 2-mercaptoethanol, 0.1 mM MnCl2. The protocol:
The increase of TAL and PAL activities with increasing substrate concentrations followed the typical Michaelis-Menton equation. The kcat of the enzyme was 1.3 S^−1 for tyrosine, and 3.3 S^−1 for phenylalanine. The KM was 44 μM for tyrosine and 161 μM for phenylalanine. The kcat/KM value was slightly higher for tyrosine (3.0 M^−1 S^−1) than for phenylalanine (2.1 M^−1 S^−1), indicating the enzyme's slight preference for tyrosine (PAL/TAL ratio of 0.7). […] The substrate specificity of the PcTAL enzyme is therefore similar to other known fungal PAL/TAL enzymes, such as that from R. glutinis, with dual specificity for tyrosine and phenylalanine.

The test system is the same in experiment [2]. Nature of the experiment: Kinetic parameters of the PcTAL enzyme for tyrosine and phenylalanine. It counts as biochemical. Conditions: 45° C., 100 mM CAPS, pH 9.5 buffer. Here is the method: The PAL and TAL activities of the purified enzymes were measured using a spectrophotometer according to Abell et al., [Phenylalanine Ammonia-lyase from Yeast Rhodotorula glutinis,” Methods Enzymol. 142:242-248 (1987)]. The assay for PAL determination was initiated by addition of the enzyme to a 50 mM Tris-HCl (pH 8.5) buffer solution containing 1.0 mM L-phenylalanine. The reaction was followed by monitoring the CA production at λ290 nm and the activity was calculated using a molar extinction coefficient of […]. The assay was run over a 5 min period using an amount of enzyme that produced absorbance changes in the range of 0.0075 to 0.018/min. One unit of activity indicated deamination of 1.0 micro-mol of phenylalanine to CA per minute. The TAL activity was similarly measured using tyrosine, instead of phenylalanine, in the reaction solution. The absorbance of the pHCA produced was followed at λ315 nm and the activity was determined using an extinction coefficient of 10,000 cm^−1 for pHCA. One unit of activity indicated deamination of 1.0 micro-mol of tyrosine to pHCA per minute. Some TAL assays were performed at pH 9.5 or 10.0 in 100 mM CAPS buffer. The TAL activity was measured as described above, except that the extinction coefficient was 16,800 cm^−1 for pHCA.
The TAL assay was typically performed in a 1.5 ml capacity UV grade disposable cuvette (VWR) at 35° C. using a Perkin-Elmer Lamba20 spectrophotometer (Wellesley, Mass.). The reaction (1.0 ml volume) contained the soluble protein sample, 100 mM CAPS pH10 buffer and 10 mM tyrosine and was monitored for 3 minutes at I315 nm. The TAL activity (U/g) was calculated as follows: Total TAL activity (mM/min)=D315 nm/min×[…] divided by pHCA extinction coefficient (M^−1 cm^−1)=D315 nm/min×[…] divided by 16,800 (M^−1 cm^−1). TAL specific activity (U/g)=total TAL activity (mM/min) divided by the amount of protein used in the assay. Gel Electrophoresis
Six grams of cell pellet, from the 10 liter fermentation of DPD5154 was resuspended in 6.0 mL Buffer A (10 mM Tris-HCl, pH 8.0, 200 μM EDTA) containing one EDTA-free protease inhibitor tablet (Roche Biosciences, Palo Alto, Calif.), 1.0 μg/ml Leupeptin, 1.0 μg/ml Pepstatin, 40 μg/ml Bestatin 5.0 mM CA. Cells were lysed by two passes through a French Pressure Cell at 20,000 PSI, and clarified by centrifugation at 12,000×g for 20 minutes. To the clarified supernatant, 1.0% streptomycin sulfate was added, and the suspension was gently mixed for 15 minutes at 4° C. and then clarified by centrifugation at 12,000×g for 20 minutes. The supernatant was heated at 60° C. for 20 min, and centrifuged again at 12,000×g for 20 minutes. […]

Data on three compounds can be found in patent US7572612B2, “Method of production of para-hydroxycinnamic acid using a thermostable TAL enzyme” (E.I. du Pont de Nemours and Company, priority 2006, dated 2009).

`N[C@@H](Cc1c[nH]cn1)C(=O)O` [histidine]: the “acceptance as a substrate” value in experiment [1] is “did not accept histidine as a substrate”.

With `N[C@@H](Cc1ccccc1)C(=O)O` [phenylalanine], in experiment [2], the Km amounted to 161 µM and the kcat worked out at 3.3 S^−1.

With `N[C@@H](Cc1ccc(O)cc1)C(=O)O` [tyrosine], in experiment [2], the Km is 44 µM and the kcat is 1.3 S^−1.
